Assay: Henry solubility constant Hcp at 298.15 K (mol/(m3 Pa))
Details: reference: Bamford et al. (1999a)

Row | Henry solubility constant Hcp | SMILES
1 | 1.9 | c1ccc2c(c1)ccc1c3ccccc3ccc21 [chrysene]
2 | 0.021 | Cc1cccc2ccccc12 [1-methylnaphthalene]
3 | 0.2 | Cc1cccc2c1ccc1ccccc12 [1-methylphenanthrene]
4 | 0.1 | c1ccc2c(c1)Cc1ccccc1-2 [2,3-benzindene]
5 | 0.18 | c1ccc2cc3ccccc3cc2c1 [anthracene]
6 | 0.23 | c1ccc2c(c1)ccc1ccccc12 [phenanthrene]

Row | SMILES | Henry solubility constant Hcp
7 | c1ccc2c(c1)-c1cccc3cccc-2c13 [benzo[jk]fluorene] | 0.51
8 | Cc1ccc2ccccc2c1 [2-methylnaphthalene] | 0.019
9 | c1cc2c3c(cccc3c1)CC2 [acenaphthene] | 0.054
10 | c1ccc2c(c1)Cc1c-2ccc2ccccc12 [benzo[a]fluorene] | 0.37
11 | C1=Cc2cccc3cccc1c23 [acenaphthylene] | 0.079

— Sander's compilation of Henry's law constants (doi:10.1002/etc.5620180906)
